{"source": "patent US4720458A", "about": "“Heat sensitive bacterial alkaline phosphatase” (priority 1983, dated 1988)", "key": {"[1]": {"system": "HK-47 alkaline phosphatase (APase) from Antarctic psychrophilic marine bacterium strain HK-47 (ATCC 39469)", "procedure": "APase activity was routinely assayed at 25° C. for 30 min in 100 μl reaction mixture containing 2 mM p-nitrophenyl phosphate, 5 mM CaCl2, 0.1M CAPS-NaOH buffer pH 9.5. The reaction was stopped by adding 300 μl of 13% (W/V) EDTA-1N NaOH to the reaction mixture. Control mixtures were similarly prepared, except that 13% EDTA-1N NaOH was added before the enzyme activity was assayed. APase activity was measured as the difference in absorbance at 410 nm between samples and control. One unit of APase activity is expressed as 1 micromole of p-nitrophenol (pNp) liberated per minute at 25° C. under the assay conditions. Protein concentration was determined by the Bio-Rad protein assay kit. Bovine serum albumin (BSA) was used as the standard. Homogeneity of the APase was examined by polyacrylamide gel electrophoresis and Bio-Rad (Bio-Rad laboratories, Richmond, CA.) silver stain."}, "[2]": {"molecular_target": "E. coli alkaline phosphatase (APase) (Escherichia coli, UniProt P00634)", "sequence (P00634 22-471)": "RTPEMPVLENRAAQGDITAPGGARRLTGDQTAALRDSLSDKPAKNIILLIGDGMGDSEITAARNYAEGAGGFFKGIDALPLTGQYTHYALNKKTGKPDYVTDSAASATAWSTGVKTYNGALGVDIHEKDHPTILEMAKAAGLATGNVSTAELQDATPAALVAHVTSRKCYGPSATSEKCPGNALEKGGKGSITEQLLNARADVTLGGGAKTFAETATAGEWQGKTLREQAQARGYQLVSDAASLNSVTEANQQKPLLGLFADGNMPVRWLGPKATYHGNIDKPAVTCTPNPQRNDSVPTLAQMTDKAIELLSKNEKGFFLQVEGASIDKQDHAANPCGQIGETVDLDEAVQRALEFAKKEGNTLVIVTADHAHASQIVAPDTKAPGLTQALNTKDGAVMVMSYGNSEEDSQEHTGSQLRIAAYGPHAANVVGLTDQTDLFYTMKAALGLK", "assay": "E. coli APase inactivation by EDTA (comparison enzyme)", "assay_type": "biochemical", "details": "read-out: EDTA concentration giving 50% inactivation of E. coli APase"}}}
{"molecule": "O=C(O)CN(CCN(CC(=O)O)CC(=O)O)CC(=O)O", "note": "[EDTA]", "values": [{"measurement": "inhibition of HK-47 APase activity", "setting": "[1]; at 1 mM EDTA", "result": "~100", "unit": "%"}, {"measurement": "sensitivity to EDTA of HK-47 APase relative to E. coli APase", "setting": "[1]; ratio of the 50% inhibition concentrations, E. coli vs HK-47", "result": 100, "unit": "fold"}, {"measurement": "IC50", "setting": "[1]; read-out: EDTA concentration inhibiting HK-47 APase activity 50%, HK-47 APase, 'as little as'", "result": 0.1, "unit": "mM"}, {"measurement": "IC50", "setting": "[2]", "result": 10, "unit": "mM"}]}
